Among the data in patent publication US9321790B2, “Pyrimidinone derivatives as antimalarial agents” (SANOFI, priority 2012, dated 2016) are IC50 values, retold here.

One test has as its target human PI3Kα (Homo sapiens (Human), UniProt P42336). Nature of the test: Human PI3Kα activity test (luciferin/luciferase ATP consumption, KinaseGlo). It counts as biochemical. The conditions noted are these: PI3Kα (p110α/p85α), 50 μM PIP2, 2 μM ATP, 90 minutes; read-out: IC50 Human PI3Kα. Background: Kinase-Glo reads ATP consumption through a luciferase reaction.
Test [1] deals with Plasmodium falciparum (strain NF54). Nature of the test: Antimalarial activity test: growth of Plasmodium falciparum in infected human erythrocytes, 3H-hypoxanthine incorporation. The class given is cell-based. Conditions: strain NF54 sensitive to chloroquine, 72 h total incubation. An outline of the steps: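 Chloroquine-sensitive NF54 parasites in human erythrocytes (1.25% hematocrit, 0.15% parasitemia) were grown in hypoxanthine-free RPMI 1640 with HEPES and Albumax II, with compound in twofold serial dilution, at 37 °C under 93% N2/4% CO2/3% O2. After 48 h, 3H-hypoxanthine (0.5 μCi) was added for 24 h. Scintillation counts versus drug-free control gave IC50.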

The mark [2] stands for this setting: Plasmodium falciparum, Erythrocyte.

human PI3Kα, sequence (P42336 whole entry): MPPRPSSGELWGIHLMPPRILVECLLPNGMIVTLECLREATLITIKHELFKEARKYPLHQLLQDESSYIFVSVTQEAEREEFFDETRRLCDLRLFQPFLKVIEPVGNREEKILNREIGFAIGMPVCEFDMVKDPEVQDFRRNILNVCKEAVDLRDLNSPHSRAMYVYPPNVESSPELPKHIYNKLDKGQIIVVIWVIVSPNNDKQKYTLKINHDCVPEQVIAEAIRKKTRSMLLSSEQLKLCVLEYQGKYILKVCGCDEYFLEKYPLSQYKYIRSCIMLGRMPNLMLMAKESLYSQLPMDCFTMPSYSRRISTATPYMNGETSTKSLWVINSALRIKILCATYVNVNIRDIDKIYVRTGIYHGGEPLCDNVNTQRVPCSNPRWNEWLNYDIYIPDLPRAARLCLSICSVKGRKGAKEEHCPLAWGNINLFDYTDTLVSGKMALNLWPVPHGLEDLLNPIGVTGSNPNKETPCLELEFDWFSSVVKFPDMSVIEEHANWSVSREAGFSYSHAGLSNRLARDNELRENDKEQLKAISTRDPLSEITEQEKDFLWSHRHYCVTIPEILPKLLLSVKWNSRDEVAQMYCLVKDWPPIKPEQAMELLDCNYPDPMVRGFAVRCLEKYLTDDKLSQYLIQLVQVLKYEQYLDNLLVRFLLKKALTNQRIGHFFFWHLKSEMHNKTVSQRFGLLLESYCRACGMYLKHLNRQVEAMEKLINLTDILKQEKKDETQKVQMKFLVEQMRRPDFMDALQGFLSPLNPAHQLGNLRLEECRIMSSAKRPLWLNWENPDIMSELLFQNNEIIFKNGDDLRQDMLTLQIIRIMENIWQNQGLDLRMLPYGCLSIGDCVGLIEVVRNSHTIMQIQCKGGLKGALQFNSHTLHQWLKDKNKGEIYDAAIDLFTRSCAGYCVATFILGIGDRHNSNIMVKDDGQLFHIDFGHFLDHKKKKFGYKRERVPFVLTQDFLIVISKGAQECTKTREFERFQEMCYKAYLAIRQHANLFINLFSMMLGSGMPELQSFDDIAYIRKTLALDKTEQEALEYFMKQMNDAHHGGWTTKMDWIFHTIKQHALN
human PI3Kα, sequence (P27986 whole entry partner): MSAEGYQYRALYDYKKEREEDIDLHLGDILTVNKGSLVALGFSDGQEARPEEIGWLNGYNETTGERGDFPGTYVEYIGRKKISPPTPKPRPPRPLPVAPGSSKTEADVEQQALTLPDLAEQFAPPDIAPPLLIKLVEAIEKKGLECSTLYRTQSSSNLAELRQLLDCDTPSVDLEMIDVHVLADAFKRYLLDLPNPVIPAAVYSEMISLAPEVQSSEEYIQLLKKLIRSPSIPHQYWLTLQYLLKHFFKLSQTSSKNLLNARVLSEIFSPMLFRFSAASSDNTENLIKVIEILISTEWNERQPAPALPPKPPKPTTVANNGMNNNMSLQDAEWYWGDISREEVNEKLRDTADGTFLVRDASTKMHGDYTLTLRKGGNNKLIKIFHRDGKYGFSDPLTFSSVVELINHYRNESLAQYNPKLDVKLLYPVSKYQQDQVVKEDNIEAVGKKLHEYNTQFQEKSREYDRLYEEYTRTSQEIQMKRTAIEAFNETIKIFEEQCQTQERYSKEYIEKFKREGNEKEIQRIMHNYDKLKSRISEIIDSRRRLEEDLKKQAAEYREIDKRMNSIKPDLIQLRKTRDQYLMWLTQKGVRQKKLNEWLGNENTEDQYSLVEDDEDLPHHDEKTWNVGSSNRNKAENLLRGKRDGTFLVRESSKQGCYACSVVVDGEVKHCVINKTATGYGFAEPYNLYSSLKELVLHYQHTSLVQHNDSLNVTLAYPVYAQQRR
Protocol for human PI3Kα: The test uses a luciferin/luciferase system to measure the concentration of ATP and its consumption during the enzymatic reaction.
After 90 minutes, the reaction is quenched by adding 20 μl/well of KinaseGlo reagent (Promega V6713). After 10 minutes in the dark, the luminescence is read using a PHERAStar microplate reader (reading at 0.8 sec/well).

`O=C(CN1c2nc(N3C[C@@H]4C[C@H]3CO4)cc(=O)n2CC[C@H]1C(F)(F)F)c1ccc2nccn2c1` [Compound 113, (8S)-9-(2-Imidazo[1,2-a]pyrid-6-yl-2-oxoethyl)-2-(1S,4S)-2-oxa-5-azabicyclo[2.2.1]hept-5-yl-8-trifluoromethyl-6,7,8,9-tetrahydropyrimido[1,2-a]pyrimidin-4-one]: the IC50 at human PI3Kα was above 10000 nM; in test [1] (setting [2]), 430 nM.

In the case of `O=C(CN1c2nc(N3C[C@@H]4C[C@H]3CO4)cc(=O)n2CC[C@H]1C(F)(F)F)c1ccc(OC(F)F)nc1` [Compound 114, (S)-9-[2-(6-difluoromethoxypyrid-3-yl)-2-oxoethyl]-2-(1S,4S)-2-oxa-5-azabicyclo[2.2.1]hept-5-yl-8-trifluoromethyl-6,7,8,9-tetrahydropyrimido[1,2-a]pyrimidin-4-one], the IC50 is above 10000 nM on human PI3Kα and 245 nM in test [1] (setting [2]).

Regarding `O=C(COc1ccc(CCN2c3nc(N4C[C@@H]5C[C@H]4CO5)cc(=O)n3CC[C@H]2C(F)(F)F)cc1)N1CCOCC1` [Compound 115, (S)-9-{2-[4-(2-Morpholin-4-yl-2-oxoethoxy)phenyl]ethyl}-2-(1S,4S)-2-oxa-5-azabicyclo[2.2.1]hept-5-yl-8-trifluoromethyl-6,7,8,9-tetrahydropyrimido[1,2-a]pyrimidin-4-one], the 50% inhibitory concentration (IC50) is 590 nM on human PI3Kα and 3 nM in test [1] (setting [2]).

On to `Cn1cc(CN2c3nc(N4C[C@@H]5C[C@H]4CO5)cc(=O)n3CC[C@H]2C(F)(F)F)c(C(F)(F)F)n1` [Compound 116, (8S)-9-(1-Methyl-3-trifluoromethyl-1H-pyrazol-4-ylmethyl)-2-(1S,4S)-2-oxa-5-azabicyclo[2.2.1]hept-5-yl-8-trifluoromethyl-6,7,8,9-tetrahydropyrimido[1,2-a]pyrimidin-4-one], for which the values for the IC50 (on human PI3Kα; in test [1] (setting [2])) were above 10000 nM and 117 nM, respectively.

As to `CN(C)CCOc1ccc(CCN2c3nc(N4C[C@@H]5C[C@H]4CO5)cc(=O)n3CC[C@H]2C(F)(F)F)cc1` [Compound 117, (8S)-9-{2-[4-(2-Dimethylaminoethoxyl)phenyl]ethyl}-2-(1S,4S)-2-oxa-5-azabicyclo[2.2.1]hept-5-yl-8-trifluoromethyl-6,7,8,9-tetrahydropyrimido[1,2-a]pyrimidin-4-one], the IC50 worked out at 380 nM at human PI3Kα and 6 nM in test [1] (setting [2]).

For the compound `O=CN1CCC(C(=O)CN2c3nc(N4C[C@@H]5C[C@H]4CO5)cc(=O)n3CC[C@H]2C(F)(F)F)CC1` [Compound 118, 4-[2-((S)-8-(1S,4S)-2-Oxa-5-azabicyclo[2.2.1]hept-5-yl-6-oxo-2-trifluoromethyl-3,4-dihydro-2H,6H-pyrimido[1,2-a]pyrimidin-1-yl)acetyl]piperidine-1-carbaldehyde], the results for the IC50 (on human PI3Kα; in test [1]) were above 10000 nM and 15 nM, respectively.

In the case of `CC(=O)N1CCC(C(=O)CN2c3nc(N4C[C@@H]5C[C@H]4CO5)cc(=O)n3CC[C@H]2C(F)(F)F)CC1` [Compound 119, (8S)-9-[2-(1-Acetylpiperid-4-yl)-2-oxoethyl]-2-(1S,4S)-2-oxa-5-azabicyclo[2.2.1]hept-5-yl-8-trifluoromethyl-6,7,8,9-tetrahydropyrimido[1,2-a]pyrimidin-4-one], the IC50 is above 10000 nM on human PI3Kα and 30 nM in test [1] (setting [2]).

One may read the IC50 as the midpoint of a concentration-inhibition curve.
